# Reference: patent publication US4731109A, “Herbicidal 2-haloacetanilides” (Monsanto Company, priority 1982, dated 1988)
# Where two headings read alike, the source gives them in different places.
# Key:
# Cocklebur = assay: Field tests, selectivity; assay type: in vivo; details: in corn
# From the text: (§1) In the discussion and tables of data below, reference is made to herbicide application rates symbolized as "GR15 " and "GR85 "; these rates are given in kilograms per hectare (kg/ha) which are convertible into pounds per acre (lbs/A) by dividing the kg/ha rate by 1.12.
# (§2) A further guide to the effectiveness of a chemical as a selective herbicide is the "selectivity factor" ("SF") for a herbicide in given crops and weeds. The selectivity factor is a measure of the relative degree of crop safety and weed injury and is expressed in terms of the GR15 /GR85 ratio, i.e., the GR15 rate for the crop divided by the GR85 rate for the weed, both rates in kg/ha (lb/A). In the tables below, selectivity factors are shown in parenthesis following the GR85 rate for each weed; the symbol "NS" indicates "non-selective". Marginal or undetermined selectivity is indicated by a dash (--).
# (§3) It will be understood by those skilled in the art that not all of the named weeds are selectively controlled in all of the named crops under all conditions of climate, soil, moisture and/or herbicide application modes. Selectivity data for control of the foregoing weeds in the crops soybeans, corn, cotton and peanuts from a plurality of field tests in various locations under various conditions of soil, moisture, etc., is shown collectively in Tables VIII-XI, respectively.
# Giant foxtail = assay: Field tests, selectivity; assay type: in vivo
# From the text: as §1, §2, §3
# Lambsquarters = assay: Field tests, selectivity; assay type: in vivo; details: in soybeans, 6 WAT
# From the text: as §1, §2, §3
# Pennsylvania smartweed = assay: Field tests, selectivity; assay type: in vivo; details: in soybeans, P.P.I., 8 WAT
# From the text: as §1, §2, §3
# Yellow foxtail = assay: Field tests, selectivity; assay type: in vivo; details: in soybeans, 6 WAT
# From the text: as §1, §2, §3
# cotton = assay: Field tests, selectivity; assay type: in vivo
# From the text: as §1, §2, §3
# [1] = system: crabgrass (smooth and hairy); assay: Field tests, selectivity; assay type: in vivo; details: in cotton, 7 WAT
# From the text: as §1, §2, §3
# goosegrass = assay: Field tests, selectivity; assay type: in vivo; details: in cotton, P.P.I., 7 WAT
# From the text: as §1, §2, §3
# prickly sida = assay: Field tests, selectivity; assay type: in vivo; details: in cotton
# From the text: as §1, §2, §3
# purple nutsedge = assay: Field tests, selectivity; assay type: in vivo; details: in cotton
# From the text: as §1, §2, §3
# purslane = assay: Field tests, selectivity; assay type: in vivo; details: in cotton, S.A., 9 WAT
# From the text: as §1, §2, §3
# soybeans = assay: Field tests, selectivity; assay type: in vivo
# From the text: as §1, §2, §3
# Bristly Starbur = assay: Field preemergence activity in peanuts, surface applied; assay type: in vivo; details: for inhibition at 2240 g/ha / inhibition at 3360 g/ha / inhibition at 4480 g/ha: pre-emergence, read-out: Percent Inhibition; for inhibition at 2240 g/ha: 2.24 Kg/Ha; for inhibition at 3360 g/ha: 3.36 Kg/Ha; for inhibition at 4480 g/ha: 4.48 Kg/Ha
# From the text: as §3
# (§4) In Table XI is presented preemergence activity data for the compound of Example 1 against three resistant annual weeds, i.e., Texas panicum, bristly starbur and Florida pusley in peanuts for periods up to 12 WAT. The data in Table XI represent the average of three replicate runs in sandy loam soil having 1.3% organic matter, 79.2% sand and 10% clay; herbicide surface applied.
# Florida Pusley = assay: as above; assay type: in vivo; details: for inhibition at 2240 g/ha: 2.24 Kg/Ha; for inhibition at 4480 g/ha: 4.48 Kg/Ha
# From the text: as §3, §4
# Texas panicum = assay: as above; assay type: in vivo; details: pre-emergence, read-out: Percent Inhibition; for inhibition at 2240 g/ha: 2.24 Kg/Ha; for inhibition at 3360 g/ha: 3.36 Kg/Ha; for inhibition at 4480 g/ha: 4.48 Kg/Ha
# From the text: as §3, §4
# peanuts = assay: as above; assay type: in vivo; details: pre-emergence, read-out: Percent Inhibition; for inhibition at 2240 g/ha: 2.24 Kg/Ha; for inhibition at 3360 g/ha: 3.36 Kg/Ha; for inhibition at 4480 g/ha: 4.48 Kg/Ha
# From the text: as §3, §4
# [2] = Toxicology studies, eye irritation; details: in vivo
# From the text: (§5) Toxicology studies on the compound of Example 1 have indicated the compound to be quite safe. […] No special handling procedures beyond normal precautions are deemed necessary.
# [3] = Toxicology studies, skin irritation; details: in vivo
# From the text: as §5
# [4] = pre-emergence, 4 WAT, read-out: Percent Inhibition
# [5] = pre-emergence, 8 WAT, read-out: Percent Inhibition
smiles,measurement,setting,value
"CCOCN(C(=O)CCl)c1c(C)cccc1C(F)(F)F [Example 1, N-(ethoxymethyl)-2'-trifluoromethyl-6'-methyl-2-chloroacetanilide]",GR85,"Cocklebur; P.P.I., 3 WAT",> 4.5 kg/ha
same,GR85,"Cocklebur; P.P.I., 6 WAT",> 4.5 kg/ha
same,GR85,"Cocklebur; S.A., 3 WAT",> 4.5 kg/ha
same,GR85,"Cocklebur; S.A., 6 WAT",> 4.5 kg/ha
same,suppression,Cocklebur; Table IX,suppression of these weeds was exhibited
same,GR85,"Giant foxtail; in corn, P.P.I., 6 WAT",2.0 kg/ha
same,S.F. (GR15/GR85),"Giant foxtail; in corn, P.P.I., 6 WAT",2.5
same,GR85,"Giant foxtail; in corn, P.P.I., 6.5 WAT",4.5 kg/ha
same,S.F. (GR15/GR85),"Giant foxtail; in corn, P.P.I., 6.5 WAT",1.5
same,GR85,"Giant foxtail; in corn, S.A., 6 WAT",< 1.1 kg/ha
same,S.F. (GR15/GR85),"Giant foxtail; in corn, S.A., 6 WAT",4
same,GR85,"Giant foxtail; in corn, S.A., 6.5 WAT",8.4 kg/ha
same,GR85,"Giant foxtail; in soybeans, P.P.I., 3 WAT",< 1.1 kg/ha
same,S.F. (GR15/GR85),"Giant foxtail; in soybeans, P.P.I., 3 WAT",> 4
same,GR85,"Giant foxtail; in soybeans, P.P.I., 5 WAT",< 1.1 kg/ha
same,S.F. (GR15/GR85),"Giant foxtail; in soybeans, P.P.I., 5 WAT",> 4
same,GR85,"Giant foxtail; in soybeans, S.A., 3 WAT",< 1.1 kg/ha
same,S.F. (GR15/GR85),"Giant foxtail; in soybeans, S.A., 3 WAT",> 4
same,GR85,Lambsquarters; P.P.I.,2.8 kg/ha
same,GR85,Lambsquarters; S.A.,2.5 kg/ha
same,S.F. (GR15/GR85),Lambsquarters; S.A.,1
same,GR85,Pennsylvania smartweed,2.5 kg/ha
same,S.F. (GR15/GR85),Pennsylvania smartweed,2
same,GR85,Yellow foxtail; P.P.I.,< 1.12 kg/ha
same,S.F. (GR15/GR85),Yellow foxtail; P.P.I.,> 1
same,GR85,Yellow foxtail; S.A.,1.1 kg/ha
same,S.F. (GR15/GR85),Yellow foxtail; S.A.,2
same,GR15,"cotton; Cotton/Crabgrass, P.P.I., 7 WAT",0.84 kg/ha
same,GR15,"cotton; Cotton/Crabgrass, S.A., 7 WAT",1.4 kg/ha
same,GR15,"cotton; Cotton/Goosegrass, P.P.I., 7 WAT",0.84 kg/ha
same,GR15,"cotton; Cotton/Prickly sida, P.P.I., 6 WAT",3.4 kg/ha
same,GR15,"cotton; Cotton/Prickly sida, S.A., 6 WAT",3.6 kg/ha
same,GR15,"cotton; Cotton/Prickly sida, S.A., 9 WAT",3.4 kg/ha
same,GR15,"cotton; Cotton/Purple nutsedge, P.P.I., 6 WAT",3.4 kg/ha
same,GR15,"cotton; Cotton/Purple nutsedge, S.A., 6 WAT",3.6 kg/ha
same,GR15,"cotton; Cotton/Purple nutsedge, S.A., 9 WAT",3.4 kg/ha
same,GR15,"cotton; Cotton/Purslane, S.A., 9 WAT",3.4 kg/ha
same,GR85,[1]; P.P.I.,1.1 kg/ha
same,GR85,[1]; S.A.,< 1.1 kg/ha
same,S.F. (GR15/GR85),[1]; S.A.,> 1
same,GR85,goosegrass,< 1.1 kg/ha
same,control,goosegrass,marginal or indeterminate
same,GR85,"prickly sida; P.P.I., 6 WAT",4.8 kg/ha
same,GR85,"prickly sida; S.A., 6 WAT",3.1 kg/ha
same,S.F. (GR15/GR85),"prickly sida; S.A., 6 WAT",1
same,GR85,"prickly sida; S.A., 9 WAT",4.8 kg/ha
same,GR85,"purple nutsedge; P.P.I., 6 WAT",4.2 kg/ha
same,GR85,"purple nutsedge; S.A., 6 WAT",1.7 kg/ha
same,S.F. (GR15/GR85),"purple nutsedge; S.A., 6 WAT",2
same,GR85,"purple nutsedge; S.A., 9 WAT",2.2 kg/ha
same,S.F. (GR15/GR85),"purple nutsedge; S.A., 9 WAT",1.5
same,GR85,purslane,2.0 kg/ha
same,S.F. (GR15/GR85),purslane,1.5
same,GR15,"soybeans; Soybeans/Giant foxtail, P.P.I., 3 WAT",> 4.5 kg/ha
same,GR15,"soybeans; Soybeans/Giant foxtail, P.P.I., 5 WAT",> 4.5 kg/ha
same,GR15,"soybeans; Soybeans/Giant foxtail, S.A., 3 WAT",> 4.5 kg/ha
same,GR15,"soybeans; Soybeans/Lambsquarters, P.P.I., 6 WAT",1.4 kg/ha
same,GR15,"soybeans; Soybeans/Lambsquarters, S.A., 6 WAT",2.5 kg/ha
same,GR15,"soybeans; Soybeans/Pennsylvania Smartweed, P.P.I., 8 WAT",4.5 kg/ha
same,GR15,"soybeans; Soybeans/Yellow foxtail, P.P.I., 6 WAT",1.4 kg/ha
same,GR15,"soybeans; Soybeans/Yellow foxtail, S.A., 6 WAT",2.5 kg/ha
same,control,"Bristly Starbur; 4.48 kg/ha, 12 WAT",complete control
same,inhibition at 2240 g/ha,Bristly Starbur; 8 WAT,78%
same,inhibition at 2240 g/ha,Bristly Starbur; 12 WAT,40%
same,inhibition at 3360 g/ha,Bristly Starbur; 8 WAT,85%
same,inhibition at 3360 g/ha,Bristly Starbur; 12 WAT,60%
same,inhibition at 4480 g/ha,Bristly Starbur; 8 WAT,95%
same,inhibition at 4480 g/ha,Bristly Starbur; 12 WAT,100%
same,control,"Florida Pusley; 4.48 kg/ha, 12 WAT",95%
same,inhibition at 2240 g/ha,Florida Pusley; [4],0%
same,inhibition at 2240 g/ha,Florida Pusley; [5],90%
same,inhibition at 3360 g/ha,"Florida Pusley; pre-emergence, 3.36 Kg/Ha, 4 WAT, read-out: Percent Inhibition",0%
same,inhibition at 4480 g/ha,Florida Pusley; [4],0%
same,inhibition at 4480 g/ha,Florida Pusley; [5],95%
same,inhibition at 4480 g/ha,"Florida Pusley; pre-emergence, 12 WAT, read-out: Percent Inhibition",95%
same,inhibition at 2240 g/ha,Texas panicum; 4 WAT,50%
same,inhibition at 2240 g/ha,Texas panicum; 8 WAT,67%
same,inhibition at 2240 g/ha,Texas panicum; 12 WAT,40%
same,inhibition at 3360 g/ha,Texas panicum; 4 WAT,68%
same,inhibition at 3360 g/ha,Texas panicum; 8 WAT,63%
same,inhibition at 3360 g/ha,Texas panicum; 12 WAT,55%
same,inhibition at 4480 g/ha,Texas panicum; 4 WAT,85%
same,inhibition at 4480 g/ha,Texas panicum; 8 WAT,88%
same,inhibition at 4480 g/ha,Texas panicum; 12 WAT,78%
same,inhibition at 2240 g/ha,peanuts; 4 WAT,5%
same,inhibition at 2240 g/ha,peanuts; 8 WAT,0%
same,inhibition at 2240 g/ha,peanuts; 12 WAT,0%
same,inhibition at 3360 g/ha,peanuts; 4 WAT,10%
same,inhibition at 3360 g/ha,peanuts; 8 WAT,0%
same,inhibition at 3360 g/ha,peanuts; 12 WAT,0%
same,inhibition at 4480 g/ha,peanuts; 4 WAT,17%
same,inhibition at 4480 g/ha,peanuts; 8 WAT,7%
same,inhibition at 4480 g/ha,peanuts; 12 WAT,0%
same,eye irritation,[2],slight eye irritation
same,skin irritation,[3],no skin irritation
